Where “and” joins values, the source holds several entries; their conditions need not be identical. Equal values may be shown once.
What was measured:
[1] = test system: mild and moderate dementia of the Alzheimer type; test: rember™ Phase 2 study: ADAS-cog change over 24 weeks; settings: for Estimate, change in ADAS-cog score vs intercept (placebo), linear least squares / Estimate, change in ADAS-cog score vs intercept (placebo), linear mixed effects: without interaction term; for Estimate, change in ADAS-cog score vs intercept, linear least squares / Estimate, change in ADAS-cog score vs intercept, linear mixed effects: with interaction term
[2] = test system: mild and moderate dementia of the Alzheimer type; test: rember™ study: ADAS-cog change over 50 weeks, linear imputation for fit-survivor bias; type: in vivo, human; settings: for Estimated change from baseline, Least Exposed Dose comparator method / Estimated effect size, Least Exposed Dose comparator method: 50 weeks; for Estimated effect size, Least Exposed Dose comparator method: vs placebo-low arm; for Effect size inferred from least-squares analysis at 50 weeks / Effect size inferred from mixed effects analysis at 50 weeks: vs inferred placebo
Text: A method has been developed by the inventors which has not been described previously which permits unbiased correction for the fit-survivor phenomenon. […] If a patient who was CDR-moderate at baseline discontinued medication at some time after 24 weeks, a straight line is fitted to the graph of available ADAS-cog change scores against visit-date for the available data for each subject. The line was not forced to pass through zero, to allow for placebo effect, and because the first visit is subject to random fluctuations. The use of a straight-line fit per-subject is supported by the large studies of Stern et al., (1994), Doraiswamy et al., (2001) and Winblad, B., Wimo, A., Engedal, K., Soininen, H., Verhey, F., Waldemar, G., Wetterholm, A. L., Haglund, A., Zhang, R., Schindler, R. (2006) 3-year study of donepezil therapy in Alzheimer's disease: effects of early and continuous therapy. […] The same approach can be applied to other outcome measures for which there were assessments scheduled after 24 weeks.
Subjects originally randomized to placebo were switched to the low (100 mg) dose bd after 24 weeks. This is referred to as the “placebo-low” treatment arm.
In this chart, the labelling conventions of “placlow” refers to subjects randomised to placebo and changed to low (100 mg) bd after 24 weeks, “low” refers to low (100 mg) dose tid, “30 mg” refers to 30 mg dose tid and “60 mg” refers to 60 mg dose tid.

CDR-moderate subjects = test: rember™ study: NPI (Neuropsychiatric Inventory) over 50 weeks; type: in vivo, human; settings: vs placebo-low arm
[3] = test system: mild and moderate dementia of the Alzheimer type; test: rember™ study: MMSE over 50 weeks; type: in vivo, human
Text: Another standardised test is the Mini-Mental State Examination [MMSE] which was proposed as a simple and quickly administered method for grading cognitive function (Folstein M F, Folstein S E & McHugh P R. ‘Mini-mental state’. A practical method for grading the cognitive state of patients for the clinician. Journal of Psychiatric Research 1975 12 189-198.). The MMSE is the most widely used cognitive screening instrument for the detection of cognitive dysfunction due to dementia in geriatric and psychiatric patients (Tombaugh T N & McIntyre N J. The mini-mental state examination: a comprehensive review. Journal of the American Geriatric Society 1992 40 922-935). The MMSE evaluates orientation, memory, attention and language functions.
The mean decline observed over the 50-week study in placebo-treated subjects was 7.8 ADAS-cog units (FIG. 19). […] On the ADAS-cog scale, about 60% of subjects improved or stayed the same at 50 weeks. On the MMSE scale, 62% improved or stayed the same at 50 weeks. The odds of a patient not declining on either scale were about 3.4 times better at the 60 mg dose than on placebo-low. The corresponding effect sizes were −6.8 ADAS-cog units and 3.2 MMSE units over the 50-week trial.

[4] = ITT/LOCF, week 24, low (100 mg) tid
[5] = ITT/OC, CDR-moderates, mixed-effects model, low (100 mg) tid
[6] = ITT/OC, week 24, CDR-mild, 30 mg tid
[7] = ITT/OC, week 24, CDR-mild, 60 mg tid
[8] = ITT/OC, week 24, CDR-mild, low (100 mg) tid
[9] = ITT/OC, week 24, CDR-moderate, 30 mg tid
[10] = ITT/OC, week 24, CDR-moderate, 60 mg tid
[11] = ITT/OC, week 24, CDR-moderate, low (100 mg) tid
[12] = ITT/OC, week 24, low (100 mg) tid

CN(C)c1ccc2nc3ccc(=[N+](C)C)cc-3sc2c1 [rember™, methylthioninium chloride]
Estimate, change in ADAS-cog score vs intercept (placebo), linear least squares [1, 4]: −0.03 ADAS-cog units | Estimate, change in ADAS-cog score vs intercept (placebo), linear mixed effects [1, 4]: −0.03 ADAS-cog units | ADAS-cog change from baseline at 24 weeks ([1]; ITT/OC, CDR-moderates, mixed-effects model, 30 mg tid): 1.03 ADAS-cog units | ADAS-cog change from baseline at 24 weeks ([1]; ITT/OC, CDR-moderates, mixed-effects model, 60 mg tid): −0.36 ADAS-cog units | ADAS-cog change from baseline at 24 weeks [1, 5]: 4.6 ADAS-cog units and 4.63 ADAS-cog units | ADAS-cog effect size at 24 weeks (vs placebo) [1, 5]: −0.42 ADAS-cog units | Estimate, change in ADAS-cog score vs intercept, linear least squares [1, 6]: 0.43 ADAS-cog units | Estimate, change in ADAS-cog score vs intercept, linear mixed effects [1, 6]: 0.33 ADAS-cog units | Estimate, change in ADAS-cog score vs intercept, linear least squares [1, 7]: −0.66 ADAS-cog units | Estimate, change in ADAS-cog score vs intercept, linear mixed effects [1, 7]: −0.77 ADAS-cog units | Estimate, change in ADAS-cog score vs intercept, linear least squares [1, 8]: −0.05 ADAS-cog units | Estimate, change in ADAS-cog score vs intercept, linear mixed effects [1, 8]: −0.21 ADAS-cog units | Estimate, change in ADAS-cog score vs intercept, linear least squares [1, 9]: 1.11 ADAS-cog units | Estimate, change in ADAS-cog score vs intercept, linear mixed effects [1, 9]: −1.09 ADAS-cog units | Estimate, change in ADAS-cog score vs intercept, linear least squares [1, 10]: −2.74 ADAS-cog units | Estimate, change in ADAS-cog score vs intercept, linear mixed effects [1, 10]: −3.23 ADAS-cog units | Estimate, change in ADAS-cog score vs intercept, linear least squares [1, 11]: 0.99 ADAS-cog units | Estimate, change in ADAS-cog score vs intercept, linear mixed effects [1, 11]: 1.13 ADAS-cog units | Estimate, change in ADAS-cog score vs intercept (placebo), linear least squares ([1]; ITT/OC, week 24, 30 mg tid): 0.00 ADAS-cog units | Estimate, change in ADAS-cog score vs intercept (placebo), linear mixed effects ([1]; ITT/OC, week 24, 30 mg tid): −0.07 ADAS-cog units | Estimate, change in ADAS-cog score vs intercept (placebo), linear least squares ([1]; ITT/OC, week 24, 60 mg tid): −0.95 ADAS-cog units | Estimate, change in ADAS-cog score vs intercept (placebo), linear mixed effects ([1]; ITT/OC, week 24, 60 mg tid): −1.13 ADAS-cog units | Estimate, change in ADAS-cog score vs intercept (placebo), linear least squares [1, 12]: 0.08 ADAS-cog units | Estimate, change in ADAS-cog score vs intercept (placebo), linear mixed effects [1, 12]: −0.04 ADAS-cog units | mean effect sizes in moderate subjects over 24 weeks ([1]; severity as interaction term, CDR-moderate, 60 mg dose): −2.7 to −3.7 ADAS-cog units | initial symptomatic improvement at 15 weeks, ADAS-cog ([2]; 60 mg dose): 1.6 ADAS-cog units | subjects improved or stayed the same on the ADAS-cog scale at 50 weeks ([2]; 60 mg tid): about 60% | Estimated change from baseline, Least Exposed Dose comparator method ([2]; 30 mg tid): 3.95 ADAS-cog units | Estimated change from baseline, Least Exposed Dose comparator method ([2]; low (100 mg) tid): 4.00 ADAS-cog units | Estimated effect size, Least Exposed Dose comparator method ([2]; 30 mg tid): −2.80 ADAS-cog units | Estimated effect size, Least Exposed Dose comparator method ([2]; 60 mg tid): −5.71 ADAS-cog units | Estimated effect size, Least Exposed Dose comparator method ([2]; low (100 mg) tid): −2.76 ADAS-cog units | Effect size inferred from least-squares analysis at 50 weeks ([2]; 30 mg tid): −4.37 ADAS-cog units | Effect size inferred from mixed effects analysis at 50 weeks ([2]; 30 mg tid): −3.87 ADAS-cog units | Effect size inferred from least-squares analysis at 50 weeks ([2]; 60 mg tid): −6.50 ADAS-cog units | Effect size inferred from least-squares analysis at 50 weeks ([2]; low (100 mg) tid): −3.59 ADAS-cog units | Effect size inferred from mixed effects analysis at 50 weeks ([2]; low (100 mg) tid): −4.04 ADAS-cog units | NPI carer-distress scale, best effect size over 50 weeks (CDR-moderate subjects): −4.6 units | NPI patient-disturbance scale, best effect size over 50 weeks (CDR-moderate subjects): −9.2 units | initial symptomatic improvement at 15 weeks, MMSE ([3]; 60 mg dose): 0.8 MMSE units | effect size on MMSE over the 50-week trial ([3]; 60 mg tid): 3.2 MMSE units | subjects improved or stayed the same on the MMSE scale at 50 weeks ([3]; 60 mg tid): 62%
